Tested on: mGγ12 mRNA
Experiment: Northern blot analysis of mGγ12 mRNA in liver of estrogen-treated mice
Format: in vivo, mouse
Details: liver RNA; normal male mice treated with estrogen vs ERKO male mice treated with estrogen and un-treated male mice; effect via estrogen receptor alpha, not beta
Description: Expressed sequence tags (EST) that represent messenger RNA (mRNA) molecules that are more abundant in the liver of normal male mice treated with estrogen than in the liver of estrogen receptor alpha knockout (ERKO) male mice also treated with estrogen were obtained by subtraction cloning. The DNA sequence of complementary DNA (cDNA) clones representing the full-length mRNA molecules corresponding to one of the above mentioned EST's was obtained.
Northern blot analysis was conducted with RNA prepared from the livers of normal male mice treated with estrogen, ERKO male mice treated with estrogen, and un-treated male mice using a hybridization probe derived from the mGγ12 cDNA.

estrogen
transcription of the mGγ12 gene in the liver: activated

— patent US20030118990A1, “Novel estrogen-regulated G protein gamma subunit: compositions and methods of use” (Schering Aktiengesellschaft, priority 2000, published 2003)
